# Literature values, collected in PubChem BioAssay AID1259410 (Chemical Carcinogenesis Research Information System (CCRIS), 2018).
# Tested on: rodent tumor promotion studies, tumor incidence
# Experiment: CCRIS tumor promotion studies
structure (smiles),measurement,setting,value
C[C@]12CC[C@@H]3c4ccc(O)cc4CC[C@H]3[C@@H]1CC[C@@H]2O,outcome,"Carcinogen: N-ETHYL-N-NITROSOUREA, 759-73-9, Doses [Carcinogen]: 12.5 MG/KG IN POLYETHYLENE GLYCOL ONCE, Doses [Promoter]: 0, 0.32 MG/PELLET IMPLANTED IN PERSISTENT ESTRUS MICE 1 WK PRIOR TO CARCINOGEN DOSE (STUDY DURATION: 16 WK), Route [Carcinogen]: INTRAUTERINE, Route [Promoter]: SUBCUTANEOUS, Species: MOUSE, Strain/Sex: CD-1/FEMALE",uterus: adenocarcinoma
same,outcome,"Carcinogen: N-ETHYL-N-NITROSOUREA, 759-73-9, Doses [Carcinogen]: 50 MG/KG BW IN POLYETHYLENE GLYCOL ONCE AT 10 WK OF AGE, Doses [Promoter]: 0, 0.5% IN CHOLESTEROL PELLET AT 9 WK OF AGE, REMOVED AFTER 8 WK (STUDY DURATION: 15 WK), Route [Carcinogen]: INTRAUTERINE, Route [Promoter]: SUBCUTANEOUS IMPLANT, Species: MOUSE, Strain/Sex: CD-1/FEMALE",uterus: tumor
same,outcome,"Carcinogen: N-ETHYL-N-NITROSOUREA, 759-73-9, Doses [Carcinogen]: 50 MG/KG BW IN POLYETHYLENE GLYCOL ONCE AT 10 WK OF AGE, Doses [Promoter]: 0, 0.5% IN CHOLESTEROL PELLET AT 11 WK OF AGE, REMOVED AFTER 8 WK (STUDY DURATION: 15 WK), Route [Carcinogen]: INTRAUTERINE, Route [Promoter]: SUBCUTANEOUS IMPLANT, Species: MOUSE, Strain/Sex: CD-1/FEMALE",uterus: tumor
same,outcome,"Carcinogen: N-ETHYL-N-NITROSOUREA, 759-73-9, Doses [Carcinogen]: 50 MG/KG BW IN POLYETHYLENE GLYCOL ONCE AT 10 WK OF AGE, Doses [Promoter]: 0, 0.5% IN CHOLESTEROL PELLET AT 14 WK OF AGE, REMOVED AFTER 8 WK (STUDY DURATION: 15 WK), Route [Carcinogen]: INTRAUTERINE, Route [Promoter]: SUBCUTANEOUS IMPLANT, Species: MOUSE, Strain/Sex: CD-1/FEMALE",uterus: tumor
same,outcome,"Carcinogen: N-ETHYL-N-NITROSOUREA, 759-73-9, Doses [Carcinogen]: 50 MG/KG BW IN POLYETHYLENE GLYCOL ONCE AT 10 WK OF AGE, Doses [Promoter]: 0, 0.5% IN CHOLESTEROL PELLET AT 17 WK OF AGE, REMOVED AFTER 8 WK (STUDY DURATION: 15 WK), Route [Carcinogen]: INTRAUTERINE, Route [Promoter]: SUBCUTANEOUS IMPLANT, Species: MOUSE, Strain/Sex: CD-1/FEMALE",uterus: tumor
same,outcome,"Carcinogen: N-METHYL-N'-NITRO-N-NITROSOGUANIDINE, 70-25-7, Doses [Carcinogen]: 50 PPM FOR 60 MIN, Doses [Promoter]: 0, 20 PPM IN DIET BEGINNING 14 WK POST CARCINOGEN DOSE (STUDY DURATION: 12 MO), Route [Carcinogen]: IMMERSION, Route [Promoter]: ORAL, Species: FISH, Strain/Sex: RAINBOW TROUT",liver: tumor
same,outcome,"Carcinogen: N-METHYL-N-NITROSOUREA, 684-93-5, Doses [Carcinogen]: 1 MG/100 G BW INJECTED INTO LEFT UTERINE TUBE ONCE, Doses [Promoter]: 0, 25 PPM IN DIET FOR 29 WK BEGINNING 1 WK POST CARCINOGEN DOSE (STUDY DURATION: 30 WK), Route [Carcinogen]: INJECTION, Route [Promoter]: ORAL, Species: MOUSE, Strain/Sex: ICR/FEMALE",uterus: adenocarcinoma
same,outcome,"Carcinogen: N-METHYL-N-NITROSOUREA, 684-93-5, Doses [Carcinogen]: 40 MG/KG ONCE AT 50 D OF AGE, Doses [Promoter]: 0, 2.5 MG PELLET IMPLANTED ON BACK OF GONADECTOMIZED RATS MAINTAINED ON LOW- IODINE DIET (STUDY DURATION: 30 WK), Route [Carcinogen]: INTRAVENOUS, Route [Promoter]: SUBCUTANEOUS IMPLANT, Species: RAT, Strain/Sex: LONG-EVANS/FEMALE","thyroid: adenoma, carcinoma"
same,outcome,"Carcinogen: N-METHYL-N-NITROSOUREA, 684-93-5, Doses [Carcinogen]: 40 MG/KG ONCE AT 50 D OF AGE, Doses [Promoter]: 0, 2.5 MG PELLET IMPLANTED ON BACK OF GONADECTOMIZED RATS MAINTAINED ON LOW- IODINE DIET (STUDY DURATION: 30 WK), Route [Carcinogen]: INTRAVENOUS, Route [Promoter]: SUBCUTANEOUS IMPLANT, Species: RAT, Strain/Sex: LONG-EVANS/MALE","thyroid: adenoma, carcinoma"
same,outcome,"Doses [Carcinogen]: 0, 125 PPM IN STATIC SOLUTIONS OF WATER FOR 30 MIN ADMINISTERED TO 21 DAY OLD EMBRYOS, Doses [Promoter]: 0, 20 PPM BEGINNING 6 WK POST CARCINOGEN TREATMENT AND CONTINUING FOR 5 WK FOLLOWED BY CONTROL DIET FOR 1 WK THEN 0, 10, Doses [Promoter]: 0, 20 PPM BEGINNING 6 WK POST CARCINOGEN TREATMENT AND CONTINUING FOR 5 WK FOLLOWED BY CONTROL DIET FOR 1 WK THEN 0, 10, Route [Carcinogen]: IMMERSION, Route [Promoter]: ORAL, Species: FISH, Strain/Sex: MT. SHASTA RAINBOW TROUT",liver: hepatocellular carcinoma or mixed carcinoma or hepatocellular adenoma
same,outcome,"Doses [Carcinogen]: 0.025 PPM IN STATIC SOLUTIONS OF WATER FOR 30 MIN ADMINISTERED TO 21 DAY OLD EMBRYOS, Doses [Promoter]: 0, 20 PPM BEGINNING 6 WK POST CARCINOGEN TREATMENT AND CONTINUING FOR 5 WK FOLLOWED BY CONTROL DIET FOR 1 WK THEN 0, 10, Doses [Promoter]: 0, 20 PPM BEGINNING 6 WK POST CARCINOGEN TREATMENT AND CONTINUING FOR 5 WK FOLLOWED BY CONTROL DIET FOR 1 WK THEN 0, 10, Route [Carcinogen]: IMMERSION, Route [Promoter]: ORAL, Species: FISH, Strain/Sex: MT. SHASTA RAINBOW TROUT",liver: hepatocellular carcinoma or mixed carcinoma
same,outcome,"Doses [Carcinogen]: 0.25 PPM IN STATIC SOLUTIONS OF WATER FOR 30 MIN, Doses [Promoter]: 0, 5 PPM IN DIET BEGINNING 5 WK POST CARCINOGEN TREATMENT AND ALTERNATED EVERY OTHER WK WITH CONTROL DIET FOR DURATION O, Route [Carcinogen]: IMMERSION, Route [Promoter]: ORAL, Species: FISH, Strain/Sex: MT. SHASTA RAINBOW TROUT",liver: hepatocellular carcinoma or mixed carcinoma
same,outcome,"Doses [Carcinogen]: 0.5 PPM FOR 30 MIN, Doses [Promoter]: 0, 20 PPM IN DIET BEGINNING 14 WK POST CARCINOGEN DOSE (STUDY DURATION: 12 MO), Route [Carcinogen]: IMMERSION, Route [Promoter]: ORAL, Species: FISH, Strain/Sex: RAINBOW TROUT",liver: tumor
CN=C(NC#N)NCCSCc1nc[nH]c1C,outcome,"Carcinogen: 1,2-DIMETHYLHYDRAZINE, 540-73-8, Doses [Carcinogen]: 30 MG/KG BW 1/WK FOR 5 WK, Doses [Promoter]: 0, 500 MG/L IN DRINKING WATER BEGINNING 4 D POST LAST CARCINOGEN DOSE (STUDY DURATION: 6 MO), Route [Carcinogen]: GAVAGE, Route [Promoter]: ORAL, Species: RAT, Strain/Sex: SPRAGUE-DAWLEY/MALE",intestine: tumor
Nc1ncn([C@@H]2O[C@H](CO)[C@@H](O)[C@H]2O)c(=O)n1,outcome,"Carcinogen: DIETHYLNITROSAMINE, 55-18-5, Doses [Carcinogen]: 50 MG/KG IN SALINE ADMINISTERED ONCE 18 HR AFTER PARTIAL HEPATECTOMY, Doses [Promoter]: 0, 2.5, 10 MG/KG 2/WK FOR 9 MO BEGINNING POST CARCINOGEN DOSE (STUDY DURATION: 18 MO), Doses [Promoter]: 0, 2.5, 10 MG/KG 2/WK FOR 9 MO BEGINNING POST CARCINOGEN DOSE (STUDY DURATION: 18 MO), Route [Promoter]: INTRAPERITONEAL, Species: RAT, Strain/Sex: F344/MALE",liver: hepatocellular carcinoma
same,outcome,"Carcinogen: DIETHYLNITROSAMINE, 55-18-5, Doses [Carcinogen]: 80 MG/KG 1/WK FOR 5 WK, Doses [Promoter]: 0, 5, 10 MG/KG INJECTED 4, 24, AND 48 HR AFTER EACH CARCINOGEN EXPOSURE (STUDY DURATION: 6 MO), Doses [Promoter]: 0, 5, 10 MG/KG INJECTED 4, 24, AND 48 HR AFTER EACH CARCINOGEN EXPOSURE (STUDY DURATION: 6 MO), Route [Carcinogen]: INTRAPERITONEAL, Route [Promoter]: INTRAPERITONEAL, Species: RAT, Strain/Sex: BD6/MALE",liver: tumor
C=CC1CC=CCC1 (stereo not given),outcome,"Carcinogen: 7,12-Dimethylbenz(a)anthracene, 57-97-6, Doses [Carcinogen]: 100 ug once in sesame oil, administered 4 mo after vinylcyclohexene diepoxide dosing, Doses [Promoter]: 160 mg/kg bw for 25 days, administered daily in sesame oil, study duration 3 or 5 months, Route [Carcinogen]: Directly on ovary, Route [Promoter]: Intraperitoneal, Species: Rat, Strain/Sex: Fischer 344/Female",ovary: tumors (non-neoplastic cystic ovaries also observed)
CNCCCN1c2ccccc2CCc2ccccc21,outcome,"Carcinogen: AZOXYMETHANE, 25843-45-2, Doses [Carcinogen]: 7.4 MG/KG BW IN 0.9% SALINE 1/WK FOR 10 WK, Doses [Promoter]: 0, 10 MG/KG BW IN 0.9% SALINE 1/2 D FOR 10 WK ON SAME DAY AS CARCINOGEN ADMINISTRATION (STUDY DURATION: 35 WK), Route [Carcinogen]: SUBCUTANEOUS, Route [Promoter]: SUBCUTANEOUS, Species: RAT, Strain/Sex: WISTAR/MALE",colon: tumor
COS(C)(=O)=O,outcome,"Carcinogen: N-METHYL-N-NITROSOUREA, 684-93-5, Doses [Carcinogen]: 0.3 MG IN CITRIC ACID PHOSPHATE BUFFER ONCE FOR 30 MIN, Doses [Promoter]: 0, 2.5 MG IN BUFFER 1/2 WK FOR 12 WK BEGINNING 14 D POST CARCINOGEN (STUDY DURATION: 2 YR), Route [Carcinogen]: INTRAVESICULAR, Route [Promoter]: INTRAVESICULAR, Species: RAT, Strain/Sex: F344/FEMALE",bladder: papillary transitional cell carcinoma
CCCCCCCCC1=C(CCCCCCCC(=O)OC)C1,outcome,"Doses [Carcinogen]: DIET, Doses [Promoter]: DIET, Route [Carcinogen]: ORAL, Route [Promoter]: ORAL, Species: FISH, Strain/Sex: RAINBOW TROUT/MALE,FEMALE",liver
